US6489470B1, “Process for the preparation of cefpodoxime proxetil diastereoisomers” (Biochemie Gesellschaft m.b.H., priority 1998, dated 2002)

Assay: bioequivalence with a commercial form for oral administration
Type: in vivo
Details: mixture of diastereoisomers, diastereoisomeric ratio (B/A+B) of 0.5 to 0.6

bioequivalence with a commercial form: bioequivalent
SMILES: COCC1=C(C(=O)OC(C)OC(=O)OC(C)C)N2C(=O)[C@@H](NC(=O)/C(=N\OC)c3csc(N)n3)C2SC1 (mixture of isomers) [cefpodoxim proxetil, 7-[2-(2-aminothiazol-4-yl)-2-(Z)-(methoxyimino)acetamido]-3-methoxymethyl-3-cephem-4-carboxylic acid-1-(isopropoxycarbonyloxy)ethyl ester]
